Usually IC50 stands for the point on the concentration scale where inhibition reaches its midpoint.

Assay [1] relates to TNFα levels in serum of LPS-challenged rats. The assay can be described thus: Rat inhibition studies: serum TNFα after iv LPS challenge. The settings on record: 5 mg/kg po, LPS 0.1 mg/kg iv 2 h after dosing, percent decrease in serum TNFα versus vehicle, read-out: % inhibition r TNFα. In kind it is in vivo. Here is the method:
All studies were done with male rats CD (SD) IGS BR (Crl) (Charles River, France), which were grouped in to 5 animal groups.
At the end of the acclimatization period, the non-fasted rats were weighed, individually identified on the tail with a permanent marker and administered by oral (po) or interperitoneal (ip) route with either vehicle, reference or test compound in a volume of 10 mL/kg adapted to the body weight. The animals were gathered in groups of 5 animals in a polystyrene labeled cage with sawdust covered floors. 2-hours after vehicle, reference or test substance administration, rats received an intravenous (iv) injection of 0.1 mg/kg LPS in a volume of 1 mL/kg of body weight. 2 h after LPS challenge (or as indicated in Tables 3B and 4B), blood samples were collected into tubes without anticoagulant by retro-orbital puncture under gas (isoflurane) anesthesia. Samples were allowed to clot at room temperature for 5 to 10 min then put on ice until there were prepared by centrifugation (6000×g for 3 min at 4° C.) and stored at −20° C. until use. TNFα levels were measured in serum samples in duplicate by ELISA technique according to the manufacturer's procedure (Rat TNFα kit Quantikine M (RTA00, R&D System, France)). Data are reported as percent decrease in observed TNFα levels versus TNFα levels observed for vehicle dosed animal groups.

For assay [2], the system named is TNF-α release from whole blood cultures stimulated with LPS. Description: IC50 by TNF alpha production upon stimulation of whole blood cultures with LPS. In kind it is cell-based. The conditions noted are these: human whole blood (buffy coat) culture, 100 ng/ml LPS, 4 hours; read-out: h TNFα IC50. An outline of the steps: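 Human buffy coat, diluted with 7 volumes of RPMI/2.5% heat-inactivated FBS, was preincubated with compound (8-point 1:3 series) for 1 h at 37 °C. It was then stimulated with 100 ng/ml LPS (final) for 4 h. Supernatant TNF-α was measured by sandwich ELISA at 450 nm, and IC50 was set between DMSO (0%) and PDE4-inhibitor (100%) controls.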

The target in assay [3] is T1, PDE4B: catalytic domain of human PDE4B from S152-S528 (Homo sapiens, UniProt Q07343).
T1 construct: The catalytic domain of human PDE4B from S152-S528; His6 (N, cleaved yes); thrombin cleavage site (N, cleaved yes); made in house; host or cells: E. coli BL21 (DE3) RIL
T1 sequence (Q07343 324-700): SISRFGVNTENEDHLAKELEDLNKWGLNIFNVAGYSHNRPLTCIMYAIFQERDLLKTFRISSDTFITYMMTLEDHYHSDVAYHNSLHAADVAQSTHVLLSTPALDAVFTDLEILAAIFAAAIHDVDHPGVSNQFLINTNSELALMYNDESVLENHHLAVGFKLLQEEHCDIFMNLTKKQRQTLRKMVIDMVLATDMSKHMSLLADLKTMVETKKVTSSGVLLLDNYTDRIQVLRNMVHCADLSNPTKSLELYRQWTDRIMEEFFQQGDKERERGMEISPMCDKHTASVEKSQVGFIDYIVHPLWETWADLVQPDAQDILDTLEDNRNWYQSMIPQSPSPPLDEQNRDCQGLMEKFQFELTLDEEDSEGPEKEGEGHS
Description: PDE4 IC50 determination by Scintillation Proximity Assay (SPA), PDE4B catalytic domain. The settings on record: [3H]cAMP SPA, 30 min at 30° C. The assay is classed as biochemical. An outline of the steps:
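Human PDE4B catalytic domain (80 ng/ml) hydrolysed [3H]cAMP in 50 mM Tris pH 7.5, 8.3 mM MgCl, 1.7 mM EGTA, 0.01% BSA for 30 min at 30 °C. Reaction was stopped with yttrium silicate SPA beads in 18 mM ZnSO4, and bound [3H]AMP was counted by scintillation. IC50 came from non-linear regression.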
A general note: SPA uses beads or plates that emit light when radiolabelled molecules are held near them.

Assay [4] deals with T2, PDE4D5: full-length human PDE4D5 isozyme (Homo sapiens, UniProt Q08499).
T2 construct: made in house; host or cells: baculovirus infected insect cells (pFastBacHT)
T2 sequence (Q08499 with tags, fused parts or gaps isoform Q08499-6): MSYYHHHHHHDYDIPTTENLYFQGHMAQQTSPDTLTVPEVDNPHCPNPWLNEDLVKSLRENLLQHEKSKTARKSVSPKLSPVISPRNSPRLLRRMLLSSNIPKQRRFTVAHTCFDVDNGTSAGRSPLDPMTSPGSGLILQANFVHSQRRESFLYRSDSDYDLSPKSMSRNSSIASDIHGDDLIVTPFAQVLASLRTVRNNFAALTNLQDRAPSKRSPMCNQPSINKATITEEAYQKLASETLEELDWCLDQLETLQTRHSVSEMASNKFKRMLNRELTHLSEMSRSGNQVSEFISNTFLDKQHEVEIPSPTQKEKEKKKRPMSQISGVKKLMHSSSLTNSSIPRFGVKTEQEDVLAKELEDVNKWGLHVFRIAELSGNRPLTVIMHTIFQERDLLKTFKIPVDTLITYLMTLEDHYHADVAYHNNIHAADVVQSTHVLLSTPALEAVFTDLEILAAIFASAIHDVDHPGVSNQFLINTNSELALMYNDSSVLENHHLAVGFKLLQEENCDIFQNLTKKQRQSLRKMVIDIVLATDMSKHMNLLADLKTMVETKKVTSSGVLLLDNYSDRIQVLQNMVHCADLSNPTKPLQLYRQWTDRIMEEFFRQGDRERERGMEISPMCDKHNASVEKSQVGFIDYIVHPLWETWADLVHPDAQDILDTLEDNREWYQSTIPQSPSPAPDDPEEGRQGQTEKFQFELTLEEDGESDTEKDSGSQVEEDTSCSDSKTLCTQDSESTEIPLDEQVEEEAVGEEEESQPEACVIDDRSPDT
The assay can be described thus: PDE4 IC50 determination by Scintillation Proximity Assay (SPA), full-length PDE4D5. In kind it is biochemical. The settings on record: cell lysate, [3H]cAMP SPA. An outline of the steps: (§1)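 Unpurified enzyme from cell lysates (PDE4B2 2.5 μl, PDE4D5 0.083 μl of 50% glycerol stock/ml) hydrolysing [3H]cAMP in 50 mM Tris pH 7.5, 8.3 mM MgCl, 1.7 mM EGTA, 0.01% BSA, 30 min at 30 °C. Stopped with yttrium silicate SPA beads in 18 mM ZnSO4; bead-bound [3H]AMP counted. IC50 by non-linear regression.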

The target of assay [5] is T3, PDE4B2: full-length human PDE4B2 isozyme (Homo sapiens, UniProt Q07343).
T3 construct: made in house; host or cells: baculovirus infected insect cells (pFastBacHT)
T3 sequence (Q07343 with tags, fused parts or gaps isoform Q07343-2): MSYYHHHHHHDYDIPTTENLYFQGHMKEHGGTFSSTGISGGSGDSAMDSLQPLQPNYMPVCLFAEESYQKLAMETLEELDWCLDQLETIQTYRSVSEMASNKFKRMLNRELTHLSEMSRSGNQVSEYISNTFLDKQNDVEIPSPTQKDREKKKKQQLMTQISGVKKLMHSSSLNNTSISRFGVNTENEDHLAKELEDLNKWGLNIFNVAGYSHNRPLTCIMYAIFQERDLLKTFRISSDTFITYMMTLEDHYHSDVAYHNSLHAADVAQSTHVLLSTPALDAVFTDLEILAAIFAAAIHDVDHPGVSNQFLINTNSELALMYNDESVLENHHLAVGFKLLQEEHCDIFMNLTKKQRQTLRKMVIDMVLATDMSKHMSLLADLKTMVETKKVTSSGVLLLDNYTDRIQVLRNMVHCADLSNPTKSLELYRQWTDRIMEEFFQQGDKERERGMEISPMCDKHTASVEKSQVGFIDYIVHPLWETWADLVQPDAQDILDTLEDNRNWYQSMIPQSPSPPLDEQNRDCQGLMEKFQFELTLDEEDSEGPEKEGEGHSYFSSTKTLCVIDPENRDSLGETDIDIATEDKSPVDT
Description: PDE4 IC50 determination by Scintillation Proximity Assay (SPA), full-length PDE4B2. In kind it is biochemical. The settings on record: cell lysate, [3H]cAMP SPA. An outline of the steps:
as §1

Turning to `COc1ccc(-c2cn(C(=O)c3ccccc3OC(C)=O)c3ncccc23)cc1OC` [Compound 110, Acetic acid 2-[3-(3,4-dimethoxy-phenyl)-pyrrolo[2,3-b]pyridine-1-carbonyl]-phenyl ester], the inhibition in vivo at 5 mg/kg in assay [1] is not below 20%. Further, the IC50 was not above 10 µM in assay [2], less than 10 µM in assay [3], less than 10 µM in assay [4] and less than 10 µM in assay [5].

Regarding `COc1ccc(-c2ccnc3c2ccn3S(=O)(=O)c2cccc3cccnc23)cc1OC` [Compound 126, 8-[4-(3,4-Dimethoxy-phenyl)-pyrrolo[2,3-b]pyridine-1-sulfonyl]-quinoline], in assay [1], the inhibition in vivo at 5 mg/kg was not below 20%. The IC50 in assay [2] is not above 10 µM; in assay [3], less than 10 µM; in assay [4], less than 10 µM; in assay [5], less than 10 µM.

The values are drawn from patent US7605168B2 (Plexxikon, Inc., priority 2004, dated 2009).
